Reference: patent US5364631A, “Tocopherol-based pharmaceutical systems” (The Liposome Company, Inc., priority 1993, dated 1994)

Tests used:
[1] = cited from earlier work
[2] = freeze fracture electron microscopy / appearance of THS bilayers, effect of pH; type: physicochemical
Procedure: Characterizing the pH-dependent polymorphic nature of the THS is of importance in designing drug delivery systems comprising THS.
An aliquot (0.1-0.3 ul) of the 10% THS vesicle specimen was sandwiched between a pair of Balzers (Nashua, NH) copper support plates and rapidly plunged from 23° C. into liquid propane. Samples were fractured and replicated on a double replicating device in a Balzers freeze-fracture unit at a vacuum of 2×10^-6 mbar or better and at -115° C. Replicas were floated off in 3N HNO3, followed by washing in a graded series of Chlorox solutions. These were finally cleaned in distilled water and picked up on 300 Hex mesh copper grids (Polysciences, PA). Replicas were viewed on a Philips 300 electron microscope at a magnification of 22,000 times.

[3] = stabilization of THS into the bilayer phase at acidic pH (detergent/surfactant screening)
Excerpt: Stabilizers are defined as compounds which allow the formation and/or maintenance of the bilayer state of d-alpha-tocopherol acid succinate based liposomes in an acidic pH environment.

[4] = cited from earlier work; remark: listed apart in the source

Cc1c(C)c2c(c(C)c1OC(=O)CCC(=O)O)CC[C@@](C)(CCC[C@H](C)CCC[C@H](C)CCCC(C)C)O2 [THS, d-alpha-tocopherol acid succinate]
pH range in which aqueous suspensions are in the bilayer phase ([1]; aqueous suspension): 6.0-9.0 pH | phase formed on lowering the pH below about 6.0 or introducing divalent cations ([1]; pH below about 6.0 or Mg++ or Ca++): produces vesicle aggregation and fusion, and induces hexagonal phase (hexII) formation | precipitation upon lowering the pH ([2]; lowered pH, no stabilizer): precipitates resembling hexII phase lipid are formed | vesicle morphology by freeze fracture electron microscopy ([2]; pH 7.0): heterogenous population of multilamellar and unilamellar vesicles

Cc1c(C)c2c(c(C)c1OC(=O)CCC(=O)O)CCC(C)(CCCC(C)CCCC(C)CCCC(C)C)O2 (centres unmarked) [t-THS, tris(hydroxymethyl)aminomethane)-tocopherol hemisuccinate]
trapping efficiency of closed multilamellar vesicles ([1]; physiological pH): high trapping efficiencies

CCCCCCCCCCCCCCCCCC(=O)OCC(O)CO (centres unmarked) [glycerol monostearate]
stabilization of THS into the bilayer phase [3]: do not stabilize the preparations

sorbitan monopalmitate
stabilization of THS into the bilayer phase [3]: do not stabilize the preparations

CC[C@@H]1C(=O)OC[C@@H]1Cc1cncn1C [pilocarpine]
chemical stability at high pH ([4]; high pH, base-catalyzed hydrolysis): unstable at high pH | chemical stability at lower pH ([4]; lower pH (protonated)): more stable | chemical stability in pilocarpine and THS mixtures ([4]; pH values around 7.0): chemically unstable

sorbitan monolaurate
stabilization of THS into the bilayer phase [3]: do not stabilize the preparations
